{"source": "patent US4963570A", "about": "“1-(acetylaminophenyl)-2-aminopropanone derivatives and pharmaceutical compositions thereof” (Laboratoire L. Lafon, priority 1983, dated 1990)", "key": {"mice [1]": {"system": "mice", "test": "motility reduced by habituation to the enclosure", "format": "in vivo, mouse", "settings": "i.p., dose not stated", "description": "After they have stayed in the actimeters for 18 hours, the mice (6 per dose, 12 control animals) receive CRL 41 224. They are immediately returned to their respective enclosures and, half an hour later, their motility is recorded for 30 minutes."}, "[2]": {"system": "White New Zealand gravid female rabbits", "test": "teratogenic study", "format": "in vivo, rabbit"}, "mice [3]": {"system": "mice", "test": "toxicity to grouped mice compared with isolated mice", "format": "in vivo, mouse"}, "rats [4]": {"system": "rats", "test": "interaction with amphetamine", "format": "in vivo, rat", "settings": "rats, i.p.; dose not stated", "description": "Amphetamine (2 mg/kg) is injected intraperitoneally into groups of 6 rats 30 minutes after the administration of CRL 41 224."}, "mice [5]": {"system": "mice", "test": "action on the spontaneous motility (actimeter)", "format": "in vivo, mouse", "settings": "mice, i.p.; dose not stated", "description": "0.5 hour after they have received CRL 41 224, the mice (6 per dose, 12 control animals) are placed in an actimeter, where their motility is recorded for 30 minutes."}, "mice [6]": {"system": "mice", "test": "interaction with apomorphine in mice", "format": "in vivo, mouse", "settings": "i.p.; dose not stated", "description": "Groups of 6 mice receive CRL 41 224 0.5 hour before the subcutaneous injection of 1 or 16 mg/kg of apomorphine."}, "rats [7]": {"system": "rats", "test": "overall behavior and reactivities in rats", "format": "in vivo, rat", "settings": "i.p., dose not stated, hydrochloride", "description": "(§1) Groups of three animals are observed before and then 0.25 hour, 0.50 hour, 1 hour, 2 hours, 3 hours and 24 hours after the administration of CRL 41 224."}, "[8]": {"test": "water solubility of the product", "format": "physicochemical", "description": "The 39 g of 1-(4-acetylaminophenyl)-2-chloropropanone thus obtained are dissolved in 200 ml of isopropylamine. The resulting reaction medium is heated under reflux for 6 hours. The excess isopropylamine is evaporated off in vacuo. The evaporation residue, which is in the form of a viscous oil, is taken up with 200 ml of anhydrous ethanol and the hydrochloride is recipitated by means of a stream of HCl gas."}, "[9]": {"system": "peripheral α-adrenergic stimulation", "test": "signs of peripheral adrenergic stimulation", "format": "in vivo, mouse; rat", "settings": "i.p.; dose not stated", "description": "as §1"}, "mice [10]": {"system": "mice", "test": "interaction with reserpine", "format": "in vivo, mouse", "settings": "i.p.; dose not stated", "description": "Four hours after the intraperitoneal injection of 2.5 mg/kg of reserpine, groups of 6 mice receive CRL 41 224."}, "mice [11]": {"system": "mice", "test": "interaction with barbital", "format": "in vivo, mouse", "settings": "i.p.; dose not stated", "description": "Half an hour after the administration of CRL 41 224, groups of 10 mice receive an intraperitoneal injection of barbital (220 mg/kg)."}, "rats [12]": {"system": "rats", "test": "action on stereotypies in rats (α-methyltyrosine, haloperidol, reserpine)"}, "man": {"system": "man", "test": "clinical trials", "format": "in vivo, human", "settings": "man, tablets or gelatine capsules 5 to 75 mg, 1 to 3 per day"}, "male mice [13]": {"system": "male mice", "test": "interaction with proadifen: motility", "format": "in vivo, mouse", "description": "(§2) Two series of experiments were carried out. In the first one, male mice (12 per dose, 12 control animals) were administered per I.P. route (i) with proadifen (75 mg/kg) at T-3 h, then (ii) with CRL 41 152 at T-0.5 h. At T=0 the mice were placed in actimeters, where their motility was recoded for 0.5 h. In the second one male mice (12 per dose, 12 control animals) were administered with proadifen and CRL 41 152 as indicated hereinabove, then subcutaneously with apomorphine (16 mg/kg) at T=0 in order to appreciate the potential variation of the hypothermia induced by apomorphine.\n(§3) In these two series CRL 41 152, in solution in distilled water, was administered per I.P. route to male mice in a volume of 20 ml/kg."}, "mice [14]": {"system": "mice", "test": "overall behavior and reactivities in mice", "format": "in vivo, mouse", "settings": "mice, i.p.; dose not stated", "description": "as §1"}, "rats [15]": {"system": "rats", "test": "interaction with apomorphine in rats", "format": "in vivo, rat", "settings": "i.p., dose not stated", "description": "CRL 41 224 is administered to groups of 6 rats 0.5 hour before the subcutaneous injection of 0.5 mg/kg of apomorphine."}, "mice [16]": {"system": "mice", "test": "interaction with barbital", "format": "in vivo, mouse", "settings": "gastric route"}, "mice [17]": {"system": "mice", "test": "motility reduced by hypoxic aggression", "format": "in vivo, mouse", "settings": "i.p., dose not stated", "description": "Half an hour after they have received CRL 41 224, the mice (10 per dose, 20 control animals) are subjected to acute hypobaric anoxia [pressure reduction of 600 mm Hg (i.e. about 8×10^4 Pa) in 90 seconds; release of vacuum in 45 seconds] and are then placed in an actimeter, where their motility is recorded for 10 minutes."}, "CNS": {"system": "CNS", "test": "overall neuropsychopharmacological (CNS) profile", "format": "in vivo, mouse; rat", "settings": "i.p., mice and rats; dose not stated; hydrochloride", "description": "The neuropsychopharmacological study of CRL 41 219 was carried out as indicated above for CRL 41 224.\nThe neuropsychopharmacological study of CRL 41 220 was carried out in accordance with the procedures given above for CRL 41 224."}, "male mice [18]": {"system": "male mice", "test": "interaction with proadifen: hypothermia induced by apomorphine", "format": "in vivo, mouse", "description": "as §2, §3"}, "male mice [19]": {"system": "male mice", "test": "influence of catecholamines on hyperactivity in mice", "format": "in vivo, mouse", "description": "A further series of assays was carried out on mice according to the teaching of S. L. HANDLEY et al. \"Influences of catecholamines on dexamphetamine, induced changes in locomotor activity\", Psychopharmacology 58, 283-288 (1978), in order to observe a potential influence of dopamine or moradrenaline on the hyperactivity induced by CRL 41 152.\nAfter a habituation period of 1.5 h to the actimeters, male mice (grouped into batches of 10 animals each and a control batch of 20 animals) were administered (under slight anesthesia with ether) per intraventriculocerebral injection (i.e. I.V.C. route) with (i) either 10 μg of noradrenaline, or 10 μg of dopamine or 10 μl (0.5 μl/second) of saline solution, then (ii) 5 minutes later, with CRL 41 152 (in solution in distilled water) per I.P. route in a volume of 20 ml/kg, immediately before replacing the mice in the actimeters vherein their motility was recorded for 1 hour by measuring the number of crossed rays per period of 5 minutes).\nBatches receiving CRL 41 152 per I.P. route with noradreanaline or dopamine per I.V.C. route were compared with (i) the control batch receiving the saline solution per I.V.C. route then distilled water per I.P. route, and (ii) batches receiving only noradrenaline, dopamine (per I.V.C. route) or CRL 41 152 (per I.P. route)."}, "mice [20]": {"system": "mice", "test": "four plate test, traction and electric shock", "format": "in vivo, mouse", "settings": "i.p.; dose not stated", "description": "The test is performed on groups of 10 mice 30 minutes after the administration of CRL 41 224."}, "mice [21]": {"system": "mice", "test": "interaction with oxotremorine", "format": "in vivo, mouse", "settings": "i.p.; dose not stated", "description": "CRL 41 224 is administered to groups of 6 mice 0.5 hour before the intraperitoneal injection of 0.5 mg/kg of oxotremorine."}, "mice [22]": {"system": "mice", "test": "action on the behavioral despair", "format": "in vivo, mouse", "settings": "i.p., dose not stated", "text": "Half an hour after they have received CRL 41 224, groups of 6 mice are placed in a beaker filled with water to a height of 6 cm. The total period of immobility between the 2nd and 6th minutes following immersion is noted."}, "[23]": {"settings": "proadifen 75 mg/kg i.p. then CRL 41 152"}}, "note": "Entries after “also recorded” stand apart in the source; their conditions may differ. Structures can show the parent of a compound that is named as a salt."}
{"compound": "CC(=O)Nc1ccc(C(=O)C(C)NC(C)C)cc1", "note": "(centres unmarked) [CRL 41 152, 1-(4-acetylaminophenyl)-2-isopropylaminopropanone hydrochloride]", "values": [{"measurement": "motor activity after habituation to the enclosure", "setting": "mice [1]", "result": "a resumption in the motor activity of mice accustomed to their enclosure"}, {"measurement": "teratogenic effect", "setting": "[2]", "result": "does not exhibit any harmful teratogenic effect"}, {"measurement": "toxicity to grouped mice compared with isolated mice", "setting": "mice [3]", "result": "do not increase the toxicity to grouped mice"}, {"measurement": "stereotypies induced by amphetamine", "setting": "rats [4]", "result": "potentiation of the stereotypies induced by apomorphine or amphetamine"}, {"measurement": "spontaneous motility / motor activity", "setting": "mice [5]", "result": "an increase in the spontaneous motility in mice"}, {"measurement": "hypothermia induced by apomorphine", "setting": "mice [6]", "result": "antagonism of the hypothermia induced by apomorphine"}, {"measurement": "stereotype movements in rats", "setting": "rats [7]", "result": "stereotype movements in rats; also recorded: induces stereotype movements"}, {"measurement": "water solubility", "setting": "[8]", "result": "very water-soluble"}, {"measurement": "exophthalmos", "setting": "[9]", "result": "absent"}, {"measurement": "mydriasis", "setting": "[9]", "result": "mydriasis"}, {"measurement": "peripheral adrenergic stimulation, overall", "setting": "[9]", "result": "effects which may reflect peripheral adrenergic stimulation"}, {"measurement": "salivation", "setting": "[9]", "result": "absent"}, {"measurement": "hypothermia induced by reserpine", "setting": "mice [10]", "result": "antagonism of the hypothermia induced by apomorphine, oxotremorine or reserpine"}, {"measurement": "ptosis induced by reserpine", "setting": "mice [10]", "result": "antagonism of the ptosis induced by reserpine"}, {"measurement": "sleep induced by barbital", "setting": "mice [11]", "result": "antagonism of the sleep induced by barbital"}, {"measurement": "effect of haloperidol on induced stereotypies", "setting": "rats [12]; haloperidol 0.25 mg/kg i.p. 0.5 h before", "result": "almost totally prevents the appearance of stereotypies"}, {"measurement": "effect of haloperidol on induced stereotypies", "setting": "rats [12]; haloperidol 0.5 mg/kg i.p. 0.5 h before", "result": "totally inhibits the said stereotypies"}, {"measurement": "suppression of induced stereotype movements by prior injection of alpha-methyltyrosine", "setting": "rats [12]; i.p.", "result": "not suppressed"}, {"measurement": "effect of reserpine on induced stereotypies", "setting": "rats [12]; reserpine 4 mg/kg i.p. 24 hours before", "result": "only a moderate reduction of the stereotypies"}, {"measurement": "inhibition by α-methyltyrosine of the induced stereotypies", "setting": "rats [12]; α-methyltyrosine 128 mg/kg i.p. 2.5 h before 30 mg/kg i.p. CRL 41 152", "result": 4, "unit": "%"}, {"measurement": "clinical result: depressions, hypersomnia and GELINEAU's disease", "setting": "man", "result": "excellent drug for treating depressions in man as well as hypersomnia and GELINEAU's disease"}, {"measurement": "spontaneous motility", "setting": "male mice [13]; i.p., administered alone", "result": "increases the spontaneous motility in mice"}, {"measurement": "effect of proadifen on the induced hypermotility", "setting": "male mice [13]; [23]", "result": "does not cause a distinct reduction of the hypermotility"}, {"measurement": "excitation in mice", "setting": "mice [14]", "result": "excitation with hyperreactivity in mice"}, {"measurement": "stereotypies induced by apomorphine", "setting": "rats [15]", "result": "potentiation of the stereotypies induced by apomorphine"}, {"measurement": "interaction with barbital, kinetic study", "setting": "mice [16]", "result": "clearly showed the interest of CRL 41 152 as awakening agent"}, {"measurement": "motor recovery after hypoxic aggression", "setting": "mice [17]", "result": "an improvement in the motor recovery in mice after acute hypoxia"}, {"measurement": "overall action on the CNS", "setting": "CNS", "result": "stimulant effects; also recorded: antidepressant effects"}, {"measurement": "hypothermia induced by apomorphine", "setting": "male mice [18]; i.p., 8 and especially 32 mg/kg, apomorphine 16 mg/kg s.c.", "result": "antagonism vis-a-vis the hypothermia induced by apomorphine"}, {"measurement": "righting behaviour and stereotypies induced by apomorphine", "setting": "male mice [18]; i.p., apomorphine 16 mg/kg s.c.", "result": "Neither proadifen, nor CRL 41 152, nor their combination modify the righting behaviour"}, {"measurement": "effect of proadifen on antagonism vis-a-vis the hypothermic effect of apomorphine", "setting": "male mice [18]; [23]", "result": "does block the antagonism"}, {"measurement": "effect of prior dopamine on the motor activity caused", "setting": "male mice [19]; dopamine 10 μg I.V.C.", "result": "did not modify the motor activity caused by CRL 41 152"}, {"measurement": "motor activity", "setting": "male mice [19]; i.p., 8 mg/kg, one-hour recording", "result": "distinct statistically significant increase in motor activity"}, {"measurement": "effect of prior noradrenaline on the motor stimulant effect", "setting": "male mice [19]; noradrenaline 10 μg I.V.C.", "result": "distinct statistically significant decrease in the motor stimulant effect"}, {"measurement": "convulsant effects of electric shock", "setting": "mice [20]", "result": "anticonvulsant effects"}, {"measurement": "hypothermia induced by oxotremorine", "setting": "mice [21]", "result": "antagonism of the hypothermia induced by apomorphine, oxotremorine"}, {"measurement": "trembling caused by oxotremorine", "setting": "mice [21]", "result": "antagonism of the trembling caused by oxotremorine"}, {"measurement": "period of immobility or \"despair\"", "setting": "mice [22]", "result": "a reduction in the immobility"}]}
